Measurements published in patent US20090018134A1, “Compounds - 945” (AstraZeneca AB, priority 2007, published 2009).

Biological target: T1, mTOR (Homo sapiens, UniProt P42345)
T1 construct: FLAG; made in house
Experiment: In Vitro mTOR Kinase Assay (Echo), Test (a)(ii)
Assay type: biochemical
Conditions: table of enzyme assay Test (a)(ii); read-out: Test (a)(ii) IC50
Method in brief: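 Enzyme: HEK293-expressed, FLAG-purified mTOR C-terminal fragment (aa 1362-2549). Rxn 2 h RT with biotinylated peptide, stopped with EDTA 50 mM/BSA/Tris pH 7.4. Detection: T389 phospho-antibody AlphaScreen, 680 nm excitation. IC50.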

T1 sequence (P42345 1362-2549): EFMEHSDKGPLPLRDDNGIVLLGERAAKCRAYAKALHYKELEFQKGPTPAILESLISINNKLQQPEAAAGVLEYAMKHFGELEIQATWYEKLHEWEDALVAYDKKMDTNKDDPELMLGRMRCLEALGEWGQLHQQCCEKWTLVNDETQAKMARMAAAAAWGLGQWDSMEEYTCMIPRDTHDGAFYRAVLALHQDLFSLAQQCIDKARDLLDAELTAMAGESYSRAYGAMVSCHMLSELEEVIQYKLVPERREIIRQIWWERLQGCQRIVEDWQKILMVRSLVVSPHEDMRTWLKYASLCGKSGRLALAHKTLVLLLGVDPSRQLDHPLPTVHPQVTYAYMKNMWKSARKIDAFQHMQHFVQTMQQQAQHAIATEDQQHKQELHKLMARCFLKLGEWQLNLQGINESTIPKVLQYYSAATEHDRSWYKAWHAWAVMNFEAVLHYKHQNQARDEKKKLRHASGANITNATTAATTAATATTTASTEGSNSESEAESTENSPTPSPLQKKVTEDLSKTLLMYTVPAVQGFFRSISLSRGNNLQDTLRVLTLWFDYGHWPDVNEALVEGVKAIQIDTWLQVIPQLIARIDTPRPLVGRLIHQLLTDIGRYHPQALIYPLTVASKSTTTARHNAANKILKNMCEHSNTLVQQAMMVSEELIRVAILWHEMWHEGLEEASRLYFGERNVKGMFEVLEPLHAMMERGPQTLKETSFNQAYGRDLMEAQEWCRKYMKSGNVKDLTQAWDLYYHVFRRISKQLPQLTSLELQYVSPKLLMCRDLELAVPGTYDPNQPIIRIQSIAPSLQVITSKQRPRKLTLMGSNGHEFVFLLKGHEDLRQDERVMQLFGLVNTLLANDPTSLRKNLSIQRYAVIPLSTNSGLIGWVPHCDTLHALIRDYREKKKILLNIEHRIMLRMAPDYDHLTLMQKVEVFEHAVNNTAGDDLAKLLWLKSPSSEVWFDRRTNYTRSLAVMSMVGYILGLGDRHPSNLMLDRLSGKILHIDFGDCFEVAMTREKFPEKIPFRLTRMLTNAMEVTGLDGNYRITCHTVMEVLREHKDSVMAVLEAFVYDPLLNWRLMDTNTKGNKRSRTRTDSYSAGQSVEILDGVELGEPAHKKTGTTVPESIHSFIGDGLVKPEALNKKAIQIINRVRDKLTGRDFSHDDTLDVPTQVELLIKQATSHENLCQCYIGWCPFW

Row | Structure (SMILES) | IC50 [nM]
1 | C[C@H]1COCCN1c1cc(C2(S(=O)(=O)CCCO)CCC2)nc(-c2ccc(NC(=O)NCC(F)F)cc2)n1 [Example 43o, 3-(2,2-difluoroethyl)-1-[4-[4-[1-(3-hydroxypropylsulfonyl)cyclobu-tyl]-6-[(3S)-3-methylmorpholin-4-yl]pyrimidin-2-yl]phenyl]urea] | 15.7
2 | C[C@H]1COCCN1c1cc(C2(S(=O)(=O)CCCO)CCC2)nc(-c2ccc(NC(=O)NC(C)(C)CO)cc2)n1 [Example 43p, 3-(1-hydroxy-2-methylpropan-2-yl)-1-[4-[4-[1-(3-hydroxypropylsulfonyl)cyclobu-tyl]-6-[(3S)-3-methylmorpholin-4-yl]pyrimidin-2-yl]phenyl]urea] | 55.5
3 | C[C@@H](CO)NC(=O)Nc1ccc(-c2nc(N3CCOC[C@@H]3C)cc(C3(S(=O)(=O)CCCO)CCC3)n2)cc1 [Example 43q, 3-[(2S)-1-hydroxypropan-2-yl]-1-[4-[4-[1-(3-hydroxypropylsulfonyl)cyclobu-tyl]-6-[(3S)-3-methylmorpholin-4-yl]pyrimidin-2-yl]phenyl]urea] | 28
4 | C[C@H](CO)NC(=O)Nc1ccc(-c2nc(N3CCOC[C@@H]3C)cc(C3(S(=O)(=O)CCCO)CCC3)n2)cc1 [Example 43r, 3-[(2R)-1-hydroxypropan-2-yl]-1-[4-[4-[1-(3-hydroxypropylsulfonyl)cyclobu-tyl]-6-[(3S)-3-methylmorpholin-4-yl]pyrimidin-2-yl]phenyl]urea] | 57.7
5 | C[C@H]1COCCN1c1cc(C2(S(=O)(=O)CCCO)CCC2)nc(-c2ccc(NC(=O)Nc3nccs3)cc2)n1 [Example 43t, 1-[4-[4-[1-(3-hydroxypropylsulfonyl)cyclobu-tyl]-6-[(3S)-3-methylmorpholin-4-yl]pyrimdiin-2-yl]phenyl]-3-(1,3-thiazol-2-yl)urea] | 5.45
6 | NC(=O)CS(=O)(=O)C1(c2cc(N3CCOCC3)nc(-c3ccc(NC(=O)NC4CC4)cc3)n2)CC1 [Example 46, 2-[1-[2-[4-(Cyclopropylcarbamoylamino)phenyl]-6-morpholin-4-ylpyrimidin-4-yl]cyclopropyl]sulfonylacetamide] | 4.56
7 | CCNC(=O)Nc1ccc(-c2nc(N3CCOCC3)cc(C3(S(=O)(=O)CCO)CC3)n2)cc1 [Example 47b, 3-ethyl-1-[4-[4-[1-(2-hydroxyethylsulfonyl)cyclopropyl]-6-morpholin-4-ylpyrimidin-2-yl]phenyl]urea] | 14.9

Results, then the molecule that gave them:

Row | IC50 [nM] | Structure (SMILES)
8 | 6.29 | C[C@H]1COCCN1c1cc(C2(S(=O)(=O)CCCO)CCC2)nc(-c2ccc(NC(=O)Nc3ncns3)cc2)n1 [Example 43s, 1-[4-[4-[1-(3-hydroxypropylsulfonyl)cyclobu-tyl]-6-[(3S)-3-methylmorpholin-4-yl]pyrimidin-2-yl]phenyl]-3-(1,2,4-thiadiazol-5-yl)urea]
9 | 23.4 | CC(=O)NCCS(=O)(=O)C1(c2cc(N3CCOC[C@@H]3C)nc(-c3ccc(NC(=O)NC4CC4)cc3)n2)CC1 [Example 44, N-[2-[1-[2-[4-(Cyclopropylcarbamoylamino)phenyl]-6-[(3S)-3-methylmorpholin-4-yl]pyrimidin-4-yl]cyclopropyl]sulfonylethyl]acetamide]
10 | 12.6 | CNC(=O)CS(=O)(=O)C1(c2cc(N3CCOCC3)nc(-c3ccc(NC(=O)NC4CC4)cc3)n2)CC1 [Example 46a]
11 | 15.5 | O=C(Nc1ccc(-c2nc(N3CCOCC3)cc(C3(S(=O)(=O)CCO)CC3)n2)cc1)NC1CC1 [Example 47, 3-Cyclopropyl-1-[4-[4-[1-(2-hydroxyethylsulfonyl)cyclopropyl]-6-morpholin-4-ylpyrimidin-2-yl]phenyl]urea]
12 | 5.4 | CNC(=O)Nc1ccc(-c2nc(N3CCOCC3)cc(C3(S(=O)(=O)CCO)CC3)n2)cc1 [Example 47a, 1-[4-[4-[1-(2-hydroxyethylsulfonyl)cyclopropyl]-6-morpholin-4-ylpyrimidin-2-yl]phenyl]-3-methylurea]
